In US20260285850A1, “SUBSTITUTED OXAZOLIDINONES AND IMIDAZOLINONES AS HERBICIDES” (FMC CORPORATION, priority 2023, published 2026):

Tests used:
Assay type in all cases: in vivo
[1] = system: barnyardgrass (Echinochloa crus-galli); experiment: Test A preemergence soil spray, visual injury rating 0-100; settings: 10 days, 0 = no effect, 100 = complete control
Method in brief: (§1)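 Seeds sown in loam-sand blend got a preemergence directed soil spray, or emerged plants (2-10 cm, one- to two-leaf) got a postemergence spray, of compound in non-phytotoxic solvent with surfactant. After 10 days in greenhouse, injury rated visually versus untreated controls on a 0 (no effect) to 100 (complete control) scale.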

[2] = system: palmer (palmer amaranth, palmer pigweed, Amaranthus palmeri); experiment: as above; settings: 10 days, 0 = no effect, 100 = complete control
Method in brief: as §1

soybean (Glycine max) [3] = experiment: as above; settings: 10 days, 0 = no effect, 100 = complete control
Method in brief: as §1

[4] = system: blackgrass (Alopecurus myosuroides); experiment: as above; settings: 10 days, 0 = no effect, 100 = complete control
Method in brief: as §1

corn (Zea mays) [5] = experiment: as above; settings: 10 days, 0 = no effect, 100 = complete control
Method in brief: as §1

[6] = system: ryegrass, Italian (italian ryegrass, Lolium multiflorum); experiment: as above; settings: 10 days, 0 = no effect, 100 = complete control
Method in brief: as §1

kochia (Bassia scoparia) [7] = experiment: as above; settings: 10 days, 0 = no effect, 100 = complete control
Method in brief: as §1

[8] = system: oat, wild (wild oat, Avena fatua); experiment: as above; settings: 10 days, 0 = no effect, 100 = complete control
Method in brief: as §1

[9] = system: wheat (Triticum aestivum); experiment: as above; settings: 10 days, 0 = no effect, 100 = complete control
Method in brief: as §1

[10] = system: ragweed (common ragweed, Ambrosia artemisiifolia); experiment: as above; settings: 10 days, 0 = no effect, 100 = complete control
Method in brief: as §1

[11] = system: barnyardgrass (Echinochloa crusgalli); experiment: Test B flooded paddy test, visual plant response rating 0-100; settings: 250 g ai/ha, Flood, applied to paddy water, evaluated after 13 days
Method in brief: (§2)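 Each species was raised to two leaves before flooding to a 3 cm depth and dosing the water with compound. Injury was assessed by eye after 13 days under greenhouse conditions.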

rice (Oryza sativa) = experiment: as above; settings: 250 g ai/ha, Flood, applied to paddy water, evaluated after 13 days
Method in brief: as §2

[12] = system: sedge, umbrella (small-flower umbrella sedge, Cyperus difformis); experiment: as above; settings: 250 g ai/ha, Flood, applied to paddy water, evaluated after 13 days
Method in brief: as §2

[13] = system: ducksalad (Heteranthera limosa); experiment: as above; settings: 250 g ai/ha, Flood, applied to paddy water, evaluated after 13 days
Method in brief: as §2

[14] = system: barnyardgrass (Echinochloa crus-galli); experiment: Test A postemergence application, visual injury rating 0-100; settings: 10 days
Method in brief: as §1

[15] = system: galium (catchweed bedstraw, Galium aparine); experiment: as above; settings: 10 days
Method in brief: as §1

[16] = system: palmer (palmer amaranth, palmer pigweed, Amaranthus palmeri); experiment: as above; settings: 10 days
Method in brief: as §1

soybean (Glycine max) [17] = experiment: as above; settings: 10 days
Method in brief: as §1

[18] = system: blackgrass (Alopecurus myosuroides); experiment: as above; settings: 10 days
Method in brief: as §1

corn (Zea mays) [19] = experiment: as above; settings: 10 days
Method in brief: as §1

[20] = system: ryegrass, Italian (italian ryegrass, Lolium multiflorum); experiment: as above; settings: 10 days
Method in brief: as §1

[21] = system: horseweed (Erigeron canadensis); experiment: as above; settings: 10 days
Method in brief: as §1

kochia (Bassia scoparia) [22] = experiment: as above; settings: 10 days
Method in brief: as §1

[23] = system: oat, wild (wild oat, Avena fatua); experiment: as above; settings: 10 days
Method in brief: as §1

[24] = system: wheat (Triticum aestivum); experiment: as above; settings: 10 days
Method in brief: as §1

[25] = system: ragweed (common ragweed, Ambrosia artemisiifolia); experiment: as above; settings: 10 days
Method in brief: as §1

[26] = 31 g ai/ha, postemergence, 0 = no effect, 100 = complete control
[27] = Postemergence, 125 g ai/ha, 0 is no effect, 100 is complete control

CC1(C(=O)NC2C=CC(C(=O)OC3CCCC3)C2)CN(c2cc(Cl)cc(Cl)c2)C(=O)O1 (stereo not drawn) [Compound 59]
Barnyardgrass plant response rating (0-100) ([1]; 31 g ai/ha): 60
Barnyardgrass plant response rating (0 to 100 scale) ([1]; 125 g ai/ha): 100
Amaranth, Palmer plant response rating (0-100) ([2]; 31 g ai/ha): 100
Amaranth, Palmer plant response rating (0 to 100 scale) ([2]; 125 g ai/ha): 100
Soybean plant response rating (0-100) (soybean (Glycine max) [3]; 31 g ai/ha): 30
Soybean plant response rating (0 to 100 scale) (soybean (Glycine max) [3]; 125 g ai/ha): 60
Blackgrass plant response rating (0-100) ([4]; 31 g ai/ha): 0
Blackgrass plant response rating (0 to 100 scale) ([4]; 125 g ai/ha): 60
Corn plant response rating (0-100) (corn (Zea mays) [5]; 31 g ai/ha): 0
Corn plant response rating (0 to 100 scale) (corn (Zea mays) [5]; 125 g ai/ha): 50
Ryegrass, Italian plant response rating (0-100) ([6]; 31 g ai/ha): 60
Ryegrass, Italian plant response rating (0 to 100 scale) ([6]; 125 g ai/ha): 80
Kochia plant response rating (0-100) (kochia (Bassia scoparia) [7]; 31 g ai/ha): 40
Kochia plant response rating (0 to 100 scale) (kochia (Bassia scoparia) [7]; 125 g ai/ha): 80
Oat, Wild plant response rating (0-100) ([8]; 31 g ai/ha): 10
Oat, Wild plant response rating (0 to 100 scale) ([8]; 125 g ai/ha): 80
Wheat plant response rating (0-100) ([9]; 31 g ai/ha): 30
Wheat plant response rating (0 to 100 scale) ([9]; 125 g ai/ha): 70
Ragweed plant response rating (0-100) ([10]; 31 g ai/ha): 30
Ragweed plant response rating (0 to 100 scale) ([10]; 125 g ai/ha): 60
Plant response rating, Barnyardgrass (0 to 100 scale, 0 is no effect and 100 is complete control) [11]: 90
Plant response rating, Rice (0 to 100 scale, 0 is no effect and 100 is complete control) (rice (Oryza sativa)): 50
Plant response rating, Sedge, Umbrella (0 to 100 scale, 0 is no effect and 100 is complete control) [12]: 98
Plant response rating, Ducksalad (0 to 100 scale, 0 is no effect and 100 is complete control) [13]: 85
Barnyardgrass plant response rating (0-100) [14, 26]: 90
Barnyardgrass plant response rating (0 to 100 scale) [14, 27]: 90
Galium plant response rating (0-100) [15, 26]: 90
Galium plant response rating (0 to 100 scale) [15, 27]: 90
Amaranth, Palmer plant response rating (0-100) [16, 26]: 90
Amaranth, Palmer / Pigweed, Palmer plant response rating (0 to 100 scale) [16, 27]: 100
Soybean plant response rating (0-100) (soybean (Glycine max) [17]; [26]): 90
Soybean plant response rating (0 to 100 scale) (soybean (Glycine max) [17]; [27]): 100
Blackgrass plant response rating (0-100) [18, 26]: 100
Blackgrass plant response rating (0 to 100 scale) [18, 27]: 100
Corn plant response rating (0-100) (corn (Zea mays) [19]; [26]): 90
Corn plant response rating (0 to 100 scale) (corn (Zea mays) [19]; [27]): 100
Ryegrass, Italian plant response rating (0-100) [20, 26]: 90
Ryegrass, Italian plant response rating (0 to 100 scale) [20, 27]: 90
Horseweed plant response rating (0-100) [21, 26]: 20
Horseweed plant response rating (0 to 100 scale) [21, 27]: 70
Kochia plant response rating (0-100) (kochia (Bassia scoparia) [22]; [26]): 80
Kochia plant response rating (0 to 100 scale) (kochia (Bassia scoparia) [22]; [27]): 90
Oat, Wild plant response rating (0-100) [23, 26]: 60
Oat, Wild plant response rating (0 to 100 scale) [23, 27]: 90
Wheat plant response rating (0-100) [24, 26]: 90
Wheat plant response rating (0 to 100 scale) [24, 27]: 90
Ragweed plant response rating (0-100) [25, 26]: 30
Ragweed plant response rating (0 to 100 scale) [25, 27]: 80
